Where two headings read alike, the source gives them in different places.
What was measured:
[1] = biological target: T1, BRG-1 (Homo sapiens, UniProt P51532); test: ATPase catalytic activity of BRG-1, ADP-Glo in vitro biochemical assay; details: 30 nM BRG-1, 400 μM ATP
T1 construct: made in house; host or cells: High Five insect cells

[2] = biological target: T2, BRM (Homo sapiens, UniProt P51531); test: ATPase catalytic activity of BRM, ADP-Glo in vitro biochemical assay; details: 30 nM BRM, 400 μM ATP
T2 construct: made in house; host or cells: High Five insect cells
T2 sequence (P51531 whole entry): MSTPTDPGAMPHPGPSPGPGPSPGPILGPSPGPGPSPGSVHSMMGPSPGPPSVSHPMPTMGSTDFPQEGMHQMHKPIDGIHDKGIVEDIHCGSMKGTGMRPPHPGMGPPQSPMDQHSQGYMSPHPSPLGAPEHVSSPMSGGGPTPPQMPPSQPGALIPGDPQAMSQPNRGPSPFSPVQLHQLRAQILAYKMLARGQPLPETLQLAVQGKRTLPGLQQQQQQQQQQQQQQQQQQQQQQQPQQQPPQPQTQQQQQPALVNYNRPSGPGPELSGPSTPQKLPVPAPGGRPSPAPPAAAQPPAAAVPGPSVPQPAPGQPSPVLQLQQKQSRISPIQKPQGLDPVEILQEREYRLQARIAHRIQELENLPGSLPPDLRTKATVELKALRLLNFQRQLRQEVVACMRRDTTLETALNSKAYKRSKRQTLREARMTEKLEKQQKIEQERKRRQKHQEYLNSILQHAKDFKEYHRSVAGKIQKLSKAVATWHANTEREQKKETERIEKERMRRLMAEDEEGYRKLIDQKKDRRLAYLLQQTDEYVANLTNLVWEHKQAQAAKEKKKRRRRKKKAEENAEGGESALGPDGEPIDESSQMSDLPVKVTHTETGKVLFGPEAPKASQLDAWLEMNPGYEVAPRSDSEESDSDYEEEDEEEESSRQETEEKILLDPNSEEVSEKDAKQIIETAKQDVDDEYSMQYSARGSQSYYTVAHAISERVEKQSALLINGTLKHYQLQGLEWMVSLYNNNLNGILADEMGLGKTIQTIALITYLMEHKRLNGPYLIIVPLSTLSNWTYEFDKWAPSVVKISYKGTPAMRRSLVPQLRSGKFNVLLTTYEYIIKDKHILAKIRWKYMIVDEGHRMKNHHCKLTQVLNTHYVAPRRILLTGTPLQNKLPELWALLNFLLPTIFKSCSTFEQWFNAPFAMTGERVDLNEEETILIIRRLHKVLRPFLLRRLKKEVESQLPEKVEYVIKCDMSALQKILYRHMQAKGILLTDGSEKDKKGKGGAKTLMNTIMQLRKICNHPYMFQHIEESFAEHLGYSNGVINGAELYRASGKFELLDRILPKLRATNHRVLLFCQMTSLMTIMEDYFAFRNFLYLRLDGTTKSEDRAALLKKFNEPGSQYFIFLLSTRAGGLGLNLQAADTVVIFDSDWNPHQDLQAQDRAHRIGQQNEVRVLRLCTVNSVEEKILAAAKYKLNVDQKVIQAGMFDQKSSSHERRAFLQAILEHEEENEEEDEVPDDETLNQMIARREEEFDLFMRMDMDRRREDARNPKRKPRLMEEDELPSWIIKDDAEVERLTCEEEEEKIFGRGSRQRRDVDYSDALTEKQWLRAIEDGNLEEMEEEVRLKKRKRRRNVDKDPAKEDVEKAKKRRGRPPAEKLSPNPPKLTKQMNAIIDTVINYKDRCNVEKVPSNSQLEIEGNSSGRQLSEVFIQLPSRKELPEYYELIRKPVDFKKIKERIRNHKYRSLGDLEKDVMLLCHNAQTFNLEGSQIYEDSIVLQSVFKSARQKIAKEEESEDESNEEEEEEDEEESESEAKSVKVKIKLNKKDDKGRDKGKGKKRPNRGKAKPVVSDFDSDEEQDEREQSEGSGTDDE

[3] = ATPase catalytic activity, read-out: BRG1 IP50
[4] = ATPase catalytic activity, read-out: BRM IP50
[5] = ATPase catalytic activity, read-out: BRG1 IP50 (μM)*
[6] = ATPase catalytic activity, read-out: BRM IP50 (μM)*

T1 sequence (P51532 whole entry): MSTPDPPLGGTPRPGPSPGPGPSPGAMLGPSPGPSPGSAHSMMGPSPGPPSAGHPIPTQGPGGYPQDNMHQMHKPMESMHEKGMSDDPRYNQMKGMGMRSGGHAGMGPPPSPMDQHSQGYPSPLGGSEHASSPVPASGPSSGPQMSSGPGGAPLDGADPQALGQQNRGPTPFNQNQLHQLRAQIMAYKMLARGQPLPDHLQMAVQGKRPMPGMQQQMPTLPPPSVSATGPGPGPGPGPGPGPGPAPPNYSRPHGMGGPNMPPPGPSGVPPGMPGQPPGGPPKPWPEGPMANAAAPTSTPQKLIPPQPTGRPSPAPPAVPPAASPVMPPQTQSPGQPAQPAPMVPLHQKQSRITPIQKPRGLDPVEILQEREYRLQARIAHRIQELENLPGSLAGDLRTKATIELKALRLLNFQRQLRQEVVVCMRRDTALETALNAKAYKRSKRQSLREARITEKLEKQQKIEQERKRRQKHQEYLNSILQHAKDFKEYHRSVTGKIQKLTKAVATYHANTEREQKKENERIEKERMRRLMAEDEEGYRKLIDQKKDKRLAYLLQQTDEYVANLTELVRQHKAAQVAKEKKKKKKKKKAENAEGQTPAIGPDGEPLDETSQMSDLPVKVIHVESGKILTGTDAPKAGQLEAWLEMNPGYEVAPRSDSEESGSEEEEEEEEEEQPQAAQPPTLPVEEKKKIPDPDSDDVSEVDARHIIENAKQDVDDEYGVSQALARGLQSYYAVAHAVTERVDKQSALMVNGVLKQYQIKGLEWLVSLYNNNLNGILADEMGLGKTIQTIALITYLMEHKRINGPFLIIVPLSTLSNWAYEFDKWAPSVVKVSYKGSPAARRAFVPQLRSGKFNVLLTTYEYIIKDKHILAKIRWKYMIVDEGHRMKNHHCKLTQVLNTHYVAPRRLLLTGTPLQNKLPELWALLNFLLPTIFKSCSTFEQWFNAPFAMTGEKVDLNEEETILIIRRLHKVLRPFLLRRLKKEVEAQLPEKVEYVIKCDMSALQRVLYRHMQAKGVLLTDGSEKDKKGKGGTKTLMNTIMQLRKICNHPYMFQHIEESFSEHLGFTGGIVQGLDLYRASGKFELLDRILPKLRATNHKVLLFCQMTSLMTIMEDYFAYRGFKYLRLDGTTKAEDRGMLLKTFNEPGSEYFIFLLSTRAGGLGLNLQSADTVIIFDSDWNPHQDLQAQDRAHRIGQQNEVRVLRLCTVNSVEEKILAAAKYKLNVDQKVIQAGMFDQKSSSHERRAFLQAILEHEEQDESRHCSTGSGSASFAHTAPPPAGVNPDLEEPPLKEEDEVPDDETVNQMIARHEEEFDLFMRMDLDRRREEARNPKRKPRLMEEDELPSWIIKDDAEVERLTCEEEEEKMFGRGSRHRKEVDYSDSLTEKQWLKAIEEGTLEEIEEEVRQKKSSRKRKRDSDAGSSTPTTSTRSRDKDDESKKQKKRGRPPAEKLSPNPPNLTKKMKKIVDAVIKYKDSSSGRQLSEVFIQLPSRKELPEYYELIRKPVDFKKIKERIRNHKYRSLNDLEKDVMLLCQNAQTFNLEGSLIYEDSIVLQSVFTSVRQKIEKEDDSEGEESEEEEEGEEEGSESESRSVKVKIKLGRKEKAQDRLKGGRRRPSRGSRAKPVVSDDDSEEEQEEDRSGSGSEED

| IC50 [1, 3] [µM] | IC50 [2, 4] [µM] | IC50 [1, 5] [µM] | IC50 [2, 6] [µM] | other results | Compound |
| --- | --- | --- | --- | --- | --- |
| > 0.01 | > 0.01 |  |  |  | CS(=O)(=O)n1ccc(C(=O)NCC(=O)Nc2nc(-c3ccc4c(c3)N(CC(F)F)CC4)cs2)c1 [Compound 487] |
| > 0.01 | > 0.01 |  |  |  | COc1cc(-c2csc(NC(=O)CNC(=O)c3ccn(S(C)(=O)=O)c3)n2)ccc1F [Compound 718] |
| > 0.1 | > 0.1 |  |  |  | Cn1ccc2ccc(-c3csc(NC(=O)CNC(=O)c4ncn(C56CC(C5)C6)n4)n3)cc2c1=O [Compound 782] |
|  |  | > 0.01 | > 0.01 |  | CS(=O)(=O)n1ccc(C(=O)NCC(=O)Nc2nc(-c3cccc(N4C[C@H]5C[C@H]5C4)c3)cs2)c1 [Compound 207] |
|  |  | > 0.01 | > 0.01 |  | CO[C@H]1CCCN(c2cccc(-c3csc(NC(=O)CNC(=O)c4ccn(C(C)(C)C)c4)n3)n2)C1 [Compound 311] |
|  |  | > 0.01 | > 0.01 |  | CCOc1cccc(-c2csc(NC(=O)CNC(=O)c3ccn(S(C)(=O)=O)c3)n2)c1 [Compound 286] |
|  |  | > 0.01 | > 0.01 |  | CS(=O)(=O)n1ccc(C(=O)NCC(=O)Nc2nc(-c3cccc(N4CCC[C@@H](F)C4)c3)cs2)c1 [Compound 213] |
|  |  | > 0.01 | < 0.01 |  | CS(=O)(=O)n1ccc(C(=O)NCC(=O)Nc2nc(-c3cccc(OCc4ccncc4)n3)cs2)c1 [Compound 147] |
|  |  | > 1 | > 1 |  | CC(C)(C)n1cc(C(=O)NCC(=O)Nc2nc(-c3cccc(C#N)c3)cs2)cn1 [Compound 37, 1-(tert-butyl)-N-(2-((4-(3-cyanophenyl)thiazol-2-yl)amino)-2-oxoethyl)-1H-pyrazole-4-carboxamide] |
|  |  | > 1 | > 1 |  | Cn1ccc(-c2cccc(-c3csc(NC(=O)CNC(=O)c4ccn(CC(C)(C)O)c4)n3)c2)n1 [Compound 28, 1-(2-hydroxy-2-methylpropyl)-N-(2-((4-(3-(1-methyl-1H-pyrazol-3-yl)phenyl)thiazol-2-yl)amino)-2-oxoethyl)-1H-pyrrole-3-carboxamide] |
| > 0.1 | > 0.1 |  |  |  | CN1CCn2nc(-c3cccc(-c4csc(NC(=O)CNC(=O)c5ccn(C(C)(C)C)c5)n4)c3)cc2C1=O [Compound 437] |
| > 0.1 | > 0.01 |  |  |  | CC1(C)CC(c2cccc(-c3csc(NC(=O)CNC(=O)c4ccn(S(C)(=O)=O)c4)n3)c2)CC(C)(C)O1 [Compound 388] |
| > 0.01 | > 0.01 |  |  |  | CS(=O)(=O)n1ccc(C(=O)NCC(=O)Nc2nc(-c3cc(Cl)cc(C#N)c3)cs2)c1 [Compound 722] |
|  |  | > 0.1 | > 0.1 |  | CS(=O)(=O)n1ccc(C(=O)NCC(=O)Nc2nc(-c3cccc(C4(O)CCOCC4)c3)cs2)c1 [Compound 141, N-(2-((4-(3-(4-hydroxytetrahydro-2H-pyran-4-yl)phenyl)thiazol-2-yl)amino)-2-oxoethyl)-1-(methylsulfonyl)-1H-pyrrole-3-carboxamide] |
|  |  | < 0.01 | < 0.01 |  | Cc1nccc(-c2cccc(-c3csc(NC(=O)CNC(=O)c4ccn(C(C)(C)C)c4)n3)c2)n1 [Compound 23, 1-(tert-butyl)-N-(2-((4-(3-(2-methylpyrimidin-4-yl)phenyl)thiazol-2-yl)amino)-2-oxoethyl)-1H-pyrrole-3-carboxamide] |
| > 0.1 | > 0.1 |  |  |  | C[C@@]1(n2ccc(C(=O)NCC(=O)Nc3nc(-c4cccc(N5CCC5)c4)cs3)c2)CCOC1 [Compound 505] |
|  |  |  |  | IC50 ([1]; read-out: BRG1 IP50): > 0.1 µM; IC50 ([2]; read-out: BRM IP50): > 0.01 µM | Cn1ccc(-c2cccc(-c3csc(NC(=O)CNC(=O)c4ccn(C5(C#N)CC5)n4)n3)c2)n1 [Compound 813] |
|  |  | > 0.01 | > 0.01 |  | CS(=O)(=O)n1ccc(C(=O)NCC(=O)Nc2nc(-c3cccc(OC4CCC4)c3)cs2)c1 [Compound 284] |
| < 0.01 | < 0.01 |  |  |  | CN1CCc2c(F)cc(-c3csc(NC(=O)CNC(=O)c4ccn(S(C)(=O)=O)c4)n3)cc21 [Compound 569] |
| < 0.01 | < 0.01 |  |  |  | Cc1nccc(-c2cccc(-c3csc(NC(=O)CNC(=O)c4ccn(S(C)(=O)=O)c4)n3)c2)n1 [Compound 416] |
| > 0.1 | > 0.1 |  |  |  | N#CC1(n2ccc(C(=O)NCC(=O)Nc3nc(-c4cccc(OCC5(F)COC5)c4)cs3)c2)CC1 [Compound 528] |
| > 0.01 | > 0.01 |  |  |  | CN(C)C(=O)C(C)(C)n1ccc(-c2cccc(-c3csc(NC(=O)CNC(=O)c4ccn(S(C)(=O)=O)c4)n3)c2)n1 [Compound 418] |
|  |  |  |  | IC50 ([1]; read-out: BRG1 IP50): > 0.01 µM; IC50 ([2]; read-out: BRM IP50): < 0.01 µM | C[C@@H]1CN(c2cccc(-c3csc(NC(=O)CNC(=O)c4ncc(C(C)(C)C)o4)n3)n2)C[C@H](C)O1 [Compound 827] |

| IC50 [1, 3] [µM] | IC50 [2, 4] [µM] | IC50 [1, 5] [µM] | IC50 [2, 6] [µM] | other results | Compound |
| --- | --- | --- | --- | --- | --- |
|  |  | > 0.01 | < 0.01 |  | COC[C@H](NC(=O)c1ccn(S(C)(=O)=O)c1)C(=O)Nc1nc(-c2cccc(N3CCO[C@H](C)C3)c2)cs1 [Compound 372] |
|  |  | > 1 | > 1 |  | O=C(CNC(=O)c1ccn(C2CCNCC2)c1)Nc1nc(-c2cccc(-c3ccncc3)c2)cs1 [Compound 39, N-(2-oxo-2-((4-(3-(pyridin-4-yl)phenyl)thiazol-2-yl)amino)ethyl)-1-(piperidin-4-yl)-1H-pyrrole-3-carboxamide] |
|  |  | > 0.01 | > 0.01 |  | CC1(n2ccc(C(=O)NCC(=O)Nc3nc(-c4cccc(N5CCC(O)CC5)n4)cs3)c2)COC1 [Compound 337] |
|  |  | > 0.1 | > 0.01 |  | CN1CCCc2ccc(-c3csc(NC(=O)CNC(=O)c4ccn(C(C)(C)C)c4)n3)nc21 [Compound 383] |
| > 0.1 | > 0.01 |  |  |  | CS(=O)(=O)n1ccc(C(=O)NCC(=O)Nc2nc(-c3cccc(N4CC5CCC(C4)O5)c3)cs2)c1 [Compound 445] |
| < 0.01 | < 0.01 |  |  |  | COC[C@H](NC(=O)c1ccn(C(C)(C)C#N)c1)C(=O)Nc1nc(-c2cccc(-c3cnn(C)n3)c2)cs1 [Compound 615] |
|  |  | > 0.01 | > 0.01 |  | Cn1ncc2c1CCN(c1cccc(-c3csc(NC(=O)CNC(=O)c4ccn(S(C)(=O)=O)c4)n3)c1)C2 [Compound 234] |
| > 0.1 | > 0.1 |  |  |  | Cc1nnc2n1CCN(c1cccc(-c3csc(NC(=O)CNC(=O)c4ccn(C(C)(C)C)c4)n3)n1)C2 [Compound 655] |
| > 0.01 | > 0.01 |  |  |  | CC(C)(C)n1ccc(C(=O)NCC(=O)Nc2nc(-c3cccc(N4CCC5(CC5)C4)n3)cs2)c1 [Compound 634] |
|  |  | > 0.01 | > 0.01 |  | CNc1cccc(-c2csc(NC(=O)CNC(=O)c3ccn(S(C)(=O)=O)c3)n2)c1 [Compound 280] |
|  |  | > 0.01 | > 0.01 |  | CN1CCN(c2cccc(-c3csc(NC(=O)CNC(=O)c4ccn(S(C)(=O)=O)c4)n3)c2)CC1=O [Compound 220] |
|  |  | > 0.01 | > 0.01 |  | C[C@H](NC(=O)c1ccn(S(C)(=O)=O)c1)C(=O)Nc1nc(-c2cccc(N3CC(O)C3)c2)cs1 [Compound 365] |
|  |  | > 0.1 | > 0.1 |  | CC(C)(NC(=O)c1ccn(S(C)(=O)=O)c1)C(=O)Nc1nc(-c2cccc(-c3ccncc3)c2)cs1 [Compound 153] |
|  |  | > 0.01 | > 0.01 |  | COC1CCN(c2cccc(-c3csc(NC(=O)CNC(=O)c4ccn(S(C)(=O)=O)c4)n3)c2)CC1 [Compound 95, N-[2-[[4-[3-(4-methoxy-1-piperidyl)phenyl]thiazol-2-yl]amino]-2-oxo-ethyl]-1-methylsulfonyl-pyrrole-3-carboxamide] |
| < 0.01 | < 0.01 |  |  |  | COC[C@H](NC(=O)c1ccn(C(C)(C)C)c1)C(=O)Nc1nc(-c2cc(C)c3ccn(C)c(=O)c3c2)cs1 [Compound 485] |
| < 0.01 | < 0.01 |  |  |  | COC[C@H](NC(=O)c1ccn(S(C)(=O)=O)c1)C(=O)Nc1nc(-c2cc(C)cc(N3C[C@@H](C)O[C@@H](C)C3)n2)cs1 [Compound 734] |
|  |  | > 0.01 | > 0.01 |  | CN1CCOCc2ccc(-c3csc(NC(=O)CNC(=O)c4ccn(S(C)(=O)=O)c4)n3)cc21 [Compound 259] |
|  |  | > 0.01 | > 0.01 |  | CS(=O)(=O)n1ccc(C(=O)NCC(=O)Nc2nc(-c3cccc(N4CCCOCC4)c3)cs2)c1 [Compound 210] |
|  |  | < 0.01 | > 0.01 |  | CN1CCc2ccc(-c3csc(NC(=O)CNC(=O)c4ccn(S(C)(=O)=O)c4)n3)cc2C1=O [Compound 137, N-(2-((4-(2-methyl-1-oxo-1,2,3,4-tetrahydroisoquinolin-7-yl)thiazol-2-yl)amino)-2-oxoethyl)-1-(methylsulfonyl)-1H-pyrrole-3-carboxamide] |
|  |  | > 0.01 | > 0.01 |  | COC[C@H](NC(=O)c1ccn(C(C)(C)C)c1)C(=O)Nc1nc(-c2ccc3c(c2)C(=O)N(C)CC3)cs1 [Compound 64, (S)-1-(tert-butyl)-N-(3-methoxy-1-((4-(2-methyl-1-oxo-1,2,3,4-tetrahydroisoquinolin-7-yl)thiazol-2-yl)amino)-1-oxopropan-2-yl)-1H-pyrrole-3-carboxamide] |
|  |  | < 0.01 | < 0.01 |  | COCC[C@H](NC(=O)c1ccn(S(C)(=O)=O)c1)C(=O)Nc1nc(-c2cccc(-c3ccncc3)c2)cs1 [Compound 72, (S)—N-(4-methoxy-1-oxo-1-((4-(3-(pyridin-4-yl)phenyl)thiazol-2-yl)amino)butan-2-yl)-1-(methylsulfonyl)-1H-pyrrole-3-carboxamide] |
| > 0.01 | > 0.01 |  |  |  | CS(=O)(=O)n1ccc(C(=O)NCC(=O)Nc2nc(-c3cccc(C4CC(F)(F)C4)c3)cs2)c1 [Compound 472] |
|  |  | < 0.01 | < 0.01 |  | CN(CC(=O)O)c1cc(-c2cccc(-c3csc(NC(=O)CNC(=O)c4ccn(S(C)(=O)=O)c4)n3)c2)ccn1 [Compound 15, 2-(methyl(4-(3-(2-(2-(1-(methylsulfonyl)-1H-pyrrole-3-carboxamido)acetamido)thiazol-4-yl)phenyl)pyridin-2-yl)amino)acetic acid] |

From patent publication US20230079819A1, “COMPOUNDS AND USES THEREOF” (Foghorn Therapeutics Inc., priority 2019, published 2023)
